{"source": "patent US6369003B1", "about": "“Process and composition for soil improvement by reducing microbially formed ethylene in the soil” (BASF Aktiengesellschaft, priority 1994, dated 2002)", "key": {"[1]": {"test_system": "Soybean plants (Delta Pine 415)", "test": "Soybeans test 3a: root nodules and total N, greenhouse", "assay_type": "in vivo, Glycine max", "details": "after 3 weeks; for Nodules: untreated 49", "method": "(§1) In these tests various types of non-sterile soils were used. The cultivation of the plants was carried out under greenhouse or climatic chamber conditions. The active compounds according to the invention were applied uniformly distributed over the soil surface in an aqueous preparation after the emergence of the respective test plants. The supply of water for the plants was carrried out using the same technique, always paying attention to uniform moistness of the soil. In the case of the cultivation of legumes, defined amounts of species-specific Rhizobia were admixed to the soil. In some cases inoculation was also carried out by seed treatment.\n(§2) a) Soybean plants (Delta Pine 415) were cultivated under greenhouse conditions in low N Limburgerhof soil in plastic pots (500 ml) and watered from above as required. A few days after emergence the plants were thinned out to 5 plants per pot.\n(§3) In 8 pots in each case per test member an aqueous active compound solution of 2.3.1.3 was applied by watering. 16 pots remained untreated in each case."}, "[2]": {"test_system": "Bean plants (Small Seeded Bell)", "test": "Field beans: root nodules, root and shoot biomass, greenhouse", "assay_type": "in vivo, Vicia faba", "details": "25 days after treatment; for Nodules: untreated 30.9; for Dry matter root: untreated 1090; for Dry matter shoot: untreated 2310", "method": "as §1\nBean plants (Small Seeded Bell) were cultivated under greenhouse conditions in low N, sandy loam soil in plastic pots (750 ml) and watered from above as required. A few days after emergence the plants were thinned out to 3 plants per pot.\nIn 5 pots in each case 25 ml each of an aqueous preparation of one concentration of 2.3.1.3 were applied by watering. 5 pots remained untreated.\n(§4) 25 days after treatment the following results were obtained: […]"}, "Peas (Field Peas VNS)": {"test_system": "Peas (Field Peas VNS)", "test": "Peas test 2c: root nodules, root and shoot biomass, greenhouse", "assay_type": "in vivo, Pisum sativum", "details": "30 days after treatment; for Nodules: untreated 6.1; for Dry matter root: untreated 275; for Dry matter shoot: untreated 459", "method": "as §1, with “treatment. c) Peas (Field Peas VNS) were cultivated under greenhouse conditions in low N, sandy loam soil in plastic pots (750 ml) and watered from above as required. A few days after emergence the plants were thinned out to 7 plants per pot. In 5 pots in each case 25 ml each of an aqueous preparation of one concentration of 2.3.1.3 were applied by watering. 5 pots remained untreated. 30 days after treatment the following results were obtained: […]” for “treatment.”"}, "[3]": {"test_system": "Soybean plants (Delta Pine 415)", "test": "Soybeans test 3b: root nodules, greenhouse", "assay_type": "in vivo, Glycine max", "details": "untreated 47", "method": "as §1, §2, §3\nb) Test procedure as in 3 a) active compound 2.3.1.3"}, "Chick-pea plants (UC-27)": {"test_system": "Chick-pea plants (UC-27)", "test": "Chick-peas: root nodules, root and shoot biomass, greenhouse", "assay_type": "in vivo, Cicer arietinum", "details": "25 days after treatment; for Nodules: untreated 11.3; for Dry matter root: untreated 1100; for Dry matter shoot: untreated 2110", "method": "as §1\nChick-pea plants (UC-27) were cultivated under greenhouse conditions in low N, sandy loam soil in plastic pots (750 ml) and watered from above as required. A few days after emergence the plants were thinned out to 3 plants per pot.\nIn 6 pots in each case 25 ml each of an aqueous preparation of one concentration of 2.3.1.3 were applied by watering. 6 pots remained untreated.\nas §4"}, "Soybeans (A 5403)": {"test_system": "Soybeans (A 5403)", "test": "Soybeans test 3d: root nodules, root and shoot biomass, greenhouse", "assay_type": "in vivo, Glycine max", "details": "30 days after treatment; for Nodules: untreated 38.3; for Dry matter root: untreated 1955; for Dry matter shoot: untreated 3616", "method": "as §1, with “treatment. d) Soybeans (A 5403) were cultivated under greenhouse conditions in low N, sandy loam soil in plastic pots (750 ml) and watered from above as required. A few days after emergence the plants were thinned out to 3 plants per pot. In 5 pots in each case 25 ml each of an aqueous preparation of one concentration of 2.3.1.3 were applied by watering. 5 pots remained untreated. 30 days after treatment the following results were obtained: […]” for “treatment.”"}}}
{"compound": "COC(=O)COC(=O)CON=C(C)C", "note": "[active compound 2.3.1.3]", "values": [{"measurement": "Total N (shoot + root)", "setting": "[1]; 0.003 mg of a.s./pot", "value": "109 % of control"}, {"measurement": "Nodules", "setting": "[1]; 0.003 mg of a.s./pot", "value": 60, "unit": "number/pot"}, {"measurement": "Total N (shoot + root)", "setting": "[1]; 0.030 mg of a.s./pot", "value": "108 % of control"}, {"measurement": "Nodules", "setting": "[1]; 0.030 mg of a.s./pot", "value": 62, "unit": "number/pot"}, {"measurement": "Total N (shoot + root)", "setting": "[1]; 0.300 mg of a.s./pot", "value": "118 % of control"}, {"measurement": "Nodules", "setting": "[1]; 0.300 mg of a.s./pot", "value": 73, "unit": "number/pot"}, {"measurement": "Nodules", "setting": "[2]; 30 g of a.s./ha", "value": 34.3, "unit": "number/plant"}, {"measurement": "Dry matter root", "setting": "[2]; 30 g of a.s./ha", "value": 1380, "unit": "mg/plant"}, {"measurement": "Dry matter shoot", "setting": "[2]; 30 g of a.s./ha", "value": 2880, "unit": "mg/plant"}, {"measurement": "Nodules", "setting": "[2]; 300 g of a.s./ha", "value": 50.7, "unit": "number/plant"}, {"measurement": "Dry matter root", "setting": "[2]; 300 g of a.s./ha", "value": 1470, "unit": "mg/plant"}, {"measurement": "Dry matter shoot", "setting": "[2]; 300 g of a.s./ha", "value": 3940, "unit": "mg/plant"}, {"measurement": "Nodules", "setting": "[2]; 3000 g of a.s./ha", "value": 48.2, "unit": "number/plant"}, {"measurement": "Dry matter root", "setting": "[2]; 3000 g of a.s./ha", "value": 960, "unit": "mg/plant"}, {"measurement": "Dry matter shoot", "setting": "[2]; 3000 g of a.s./ha", "value": 2450, "unit": "mg/plant"}, {"measurement": "Nodules", "setting": "Peas (Field Peas VNS); 3 g of a.s./ha", "value": 41.5, "unit": "number/plant"}, {"measurement": "Dry matter root", "setting": "Peas (Field Peas VNS); 3 g of a.s./ha", "value": 849, "unit": "mg/plant"}, {"measurement": "Dry matter shoot", "setting": "Peas (Field Peas VNS); 3 g of a.s./ha", "value": 1064, "unit": "mg/plant"}, {"measurement": "Nodules", "setting": "Peas (Field Peas VNS); 30 g of a.s./ha", "value": 39.4, "unit": "number/plant"}, {"measurement": "Dry matter root", "setting": "Peas (Field Peas VNS); 30 g of a.s./ha", "value": 704, "unit": "mg/plant"}, {"measurement": "Dry matter shoot", "setting": "Peas (Field Peas VNS); 30 g of a.s./ha", "value": 795, "unit": "mg/plant"}, {"measurement": "Nodules", "setting": "Peas (Field Peas VNS); 300 g of a.s./ha", "value": 56.1, "unit": "number/plant"}, {"measurement": "Dry matter root", "setting": "Peas (Field Peas VNS); 300 g of a.s./ha", "value": 945, "unit": "mg/plant"}, {"measurement": "Dry matter shoot", "setting": "Peas (Field Peas VNS); 300 g of a.s./ha", "value": 1209, "unit": "mg/plant"}, {"measurement": "Nodules", "setting": "[3]; 0.003 mg of a.s./pot; procedure as in 3 a)", "value": 72, "unit": "number/pot"}, {"measurement": "Nodules", "setting": "[3]; 0.030 mg of a.s./pot; procedure as in 3 a)", "value": 83, "unit": "number/pot"}, {"measurement": "Nodules", "setting": "[3]; 0.300 mg of a.s./pot; procedure as in 3 a)", "value": 69, "unit": "number/pot"}, {"measurement": "Nodules", "setting": "Chick-pea plants (UC-27); 30 g of a.s./ha", "value": 31.4, "unit": "number/plant"}, {"measurement": "Dry matter root", "setting": "Chick-pea plants (UC-27); 30 g of a.s./ha", "value": 1280, "unit": "mg/plant"}, {"measurement": "Dry matter shoot", "setting": "Chick-pea plants (UC-27); 30 g of a.s./ha", "value": 2690, "unit": "mg/plant"}, {"measurement": "Nodules", "setting": "Chick-pea plants (UC-27); 300 g of a.s./ha", "value": 44.0, "unit": "number/plant"}, {"measurement": "Dry matter root", "setting": "Chick-pea plants (UC-27); 300 g of a.s./ha", "value": 1520, "unit": "mg/plant"}, {"measurement": "Dry matter shoot", "setting": "Chick-pea plants (UC-27); 300 g of a.s./ha", "value": 3350, "unit": "mg/plant"}, {"measurement": "Nodules", "setting": "Chick-pea plants (UC-27); 3000 g of a.s./ha", "value": 6.2, "unit": "number/plant"}, {"measurement": "Dry matter root", "setting": "Chick-pea plants (UC-27); 3000 g of a.s./ha", "value": 1150, "unit": "mg/plant"}, {"measurement": "Dry matter shoot", "setting": "Chick-pea plants (UC-27); 3000 g of a.s./ha", "value": 4110, "unit": "mg/plant"}, {"measurement": "Nodules", "setting": "Soybeans (A 5403); 3 g of a.s./ha", "value": 47.6, "unit": "number/plant"}, {"measurement": "Dry matter root", "setting": "Soybeans (A 5403); 3 g of a.s./ha", "value": 2806, "unit": "mg/plant"}, {"measurement": "Dry matter shoot", "setting": "Soybeans (A 5403); 3 g of a.s./ha", "value": 4020, "unit": "mg/plant"}, {"measurement": "Nodules", "setting": "Soybeans (A 5403); 300 g of a.s./ha", "value": 54.9, "unit": "number/plant"}, {"measurement": "Dry matter root", "setting": "Soybeans (A 5403); 300 g of a.s./ha", "value": 1326, "unit": "mg/plant"}, {"measurement": "Dry matter shoot", "setting": "Soybeans (A 5403); 300 g of a.s./ha", "value": 4117, "unit": "mg/plant"}]}
